The target in experiment [1] is full-length HAQ STING (Homo sapiens (Human), UniProt Q86WV6, G230A/H232R/R293Q/R71H). Nature of the experiment: 3H-cGAMP filtration binding assay (HAQ STING). Conditions: competition with tritiated cGAMP, HAQ STING membrane; read-out: EC50 (nM), 3H-cGAMP filtration binding assay for HAQ STING. The essentials: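 Competition binding of compounds against 8 nM [3H]cGAMP working stock on Hi-Five cell membranes overexpressing full-length HAQ STING; compound and membrane preincubated 60 min at RT before ligand addition. Bound radioactivity read by filtration and scintillation counting; percent activity normalized to controls, EC50 from 4-parameter fit.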

For experiment [2], the system named is IFN-β secretion in THP1 cells. Nature of the experiment: IFN-β secretion in THP1 cell culture (5 h). It counts as cell-based, human. Conditions: IFN-β secretion in THP1 cell culture, 5 h; compound at 30 μM; percent activation relative to 2′3′-cGAMP. The essentials:
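THP1 cells incubated with compound for 5 h at 37 °C, 5% CO2, and secreted IFN-β in supernatant quantified by AlphaLISA. Percent effect normalised to 30 uM cGAMP positive control and 0.3% DMSO. EC50 from 4-parameter fit.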

Sequence of full-length HAQ STING (Q86WV6 other isoform, or with tags, fused parts or gaps, stated change not applied): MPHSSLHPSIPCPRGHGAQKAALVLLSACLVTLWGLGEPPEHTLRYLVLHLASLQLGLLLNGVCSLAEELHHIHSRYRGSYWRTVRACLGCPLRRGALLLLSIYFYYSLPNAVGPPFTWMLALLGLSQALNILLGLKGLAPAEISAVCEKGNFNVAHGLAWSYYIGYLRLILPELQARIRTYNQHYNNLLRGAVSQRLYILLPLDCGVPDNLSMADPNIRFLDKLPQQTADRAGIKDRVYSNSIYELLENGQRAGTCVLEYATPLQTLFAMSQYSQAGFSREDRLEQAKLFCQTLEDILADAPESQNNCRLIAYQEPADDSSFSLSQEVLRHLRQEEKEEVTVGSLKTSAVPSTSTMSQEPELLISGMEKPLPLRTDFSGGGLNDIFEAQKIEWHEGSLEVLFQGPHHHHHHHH

In the case of `Nc1ncc2ncn([C@@H]3O[C@@H]4COP(=O)(O)O[C@@H]5[C@H](O)[C@@H](COP(=O)(O)O[C@H]4[C@H]3O)O[C@H]5n3cnc4c(=O)[nH]c(N)nc43)c2n1` [Example 59, 2-amino-9-[(5R,7R,8R,12aR,14R,15R,15aS,16R)-14-(2-amino-9H-purin-9-yl)-2,10,15,16-tetrahydroxy-2,10-dioxidooctahydro-12H-5,8-methanofuro[3,2-l][1,3,6,9,11,2,10]pentaoxadiphosphacyclotetradecin-7-yl]-1,9-dihydro-6H-purin-6-one], the EC50 in experiment [1] turned out to be 11.8 nM. Also, the “% Effect at 30 μM relative to 2′3′-cGAMP” value in experiment [2] is listed as 76%.
On the same counts, the results for `N#Cc1cn([C@@H]2O[C@@H]3COP(=O)(O)O[C@@H]4[C@H](O)[C@@H](COP(=O)(O)O[C@H]3[C@H]2O)O[C@H]4n2cnc3c(=O)[nH]c(N)nc32)c2ncnc(N)c12` [Example 60, 4-amino-7-[(5R,7R,8R,12aR,14R,15R,15aS,16R)-7-(2-amino-6-oxo-1,6-dihydro-9H-purin-9-yl)-2,10,15,16-tetrahydroxy-2,10-dioxidooctahydro-12H-5,8-methanofuro[3,2-l][1,3,6,9,11,2,10]pentaoxadiphosphacyclotetradecin-14-yl]-7H-pyrrolo[2,3-d]pyrimidine-5-carbonitrile] are 42.5 nM and 12%.
Consider `Nc1ncnc2c1ncn2[C@@H]1O[C@@H]2COP(=O)(O)O[C@@H]3[C@H](O)[C@@H](COP(=O)(O)O[C@H]2[C@H]1O)O[C@H]3n1ncc2c(=O)[nH]cnc21` [Example 66, 1-[(5R,7R,8R,12aR,14R,15R,15aS,16R)-14-(6-amino-9H-purin-9-yl)-2,10,15,16-tetrahydroxy-2,10-dioxidooctahydro-12H-5,8-methanofuro[3,2-l][1,3,6,9,11,2,10]pentaoxadiphosphacyclotetradecin-7-yl]-1,5-dihydro-4H-pyrazolo[3,4-d]pyrimidin-4-one], for which the EC50 in experiment [1] was 117 nM. Besides, in experiment [2], the “% Effect at 30 μM relative to 2′3′-cGAMP” value stood at 54%.
In the case of `Nc1ncnc2c1ccn2[C@@H]1O[C@@H]2COP(=O)(O)O[C@@H]3C[C@@H](COP(=O)(O)O[C@H]2[C@H]1O)O[C@H]3n1cnc2c(=O)[nH]cnc21` [Example 67, 9-[(5S,7R,8R,12aR,14R,15R,15aS)-14-(4-amino-7H-pyrrolo[2,3-d]pyrimidin-7-yl)-2,10,15-trihydroxy-2,10-dioxidooctahydro-12H-5,8-methanofuro [3,2-l][1,3,6,9,11,2,10]pentaoxadiphosphacyclotetradecin-7-yl]-1,9-dihydro-6H-purin-6-one], the EC50 in experiment [1] was 6.4 nM. In experiment [2], the “% Effect at 30 μM relative to 2′3′-cGAMP” value came out at 111%.
The matching figures for `Nc1ncnc2c1ncn2[C@@H]1O[C@@H]2COP(=O)(O)O[C@@H]3[C@H](O)[C@@H](COP(=O)(O)O[C@H]2[C@H]1O)O[C@H]3c1cnc2c(=O)[nH]cnn12` [Example 68, 7-[(5R,7S,8R,12aR,14R,15R,15aS,16R)-14-(6-amino-9H-purin-9-yl)-2,10,15,16-tetrahydroxy-2,10-dioxidooctahydro-12H-5,8-methanofuro [3,2-l][1,3,6,9,11,2,10]pentaoxadiphosphacyclotetradecin-7-yl]imidazo[2,1-f][1,2,4]triazin-4(3H)-one]: 63.8 nM and 72%.
With `Nc1nc2c(ncn2[C@@H]2O[C@@H]3COP(=O)(O)O[C@H]4[C@@H](O)[C@H](n5nnc6c(N)nccc65)O[C@@H]4COP(=O)(O)O[C@@H]2[C@@H]3O)c(=O)[nH]1` [Example 73, 2-amino-9-[(5R,7R,8R,12aR,14R,15R,15aS,16R)-14-(4-amino-1H-[1,2,3]triazolo[4,5-c]pyridin-1-yl)-2,10,15,16-tetrahydroxy-2,10-dioxidooctahydro-12H-5,8-methanofuro[3,2-l][1,3,6,9,11,2,10]pentaoxadiphosphacyclotetradecin-7-yl]-1,9-dihydro-6H-purin-6-one], the EC50 in experiment [1] stood at 834 nM. Further, the “% Effect at 30 μM relative to 2′3′-cGAMP” value in experiment [2] is listed as 5%.
For `Nc1ncnc2c1ncn2[C@@H]1O[C@@H]2COP(=O)(O)O[C@@H]3[C@H](O)[C@@H](COP(=O)(O)O[C@H]2[C@H]1O)O[C@H]3c1n[nH]c2c(=O)[nH]cnc12` [Example 74, 3-[(5R,7S,8R,12aR,14R,15R,15aS,16R)-14-(6-amino-9H-purin-9-yl)-2,10,15,16-tetrahydroxy-2,10-dioxidooctahydro-12H-5,8-methanofuro[3,2-l][1,3,6,9,11,2,10]pentaoxadiphosphacyclotetradecin-7-yl]-1,6-dihydro-7H-pyrazolo[4,3-d]pyrimidin-7-one], in experiment [1], the EC50 is 5.8 nM. The “% Effect at 30 μM relative to 2′3′-cGAMP” value in experiment [2] turned out to be 57%.
As for `Nc1nc2c(ncn2[C@@H]2O[C@@H]3COP(=O)(O)O[C@H]4[C@@H](O)[C@H](n5cnc6c(N)ncnc65)O[C@@H]4COP(=O)(O)O[C@@H]2[C@@H]3N)c(=O)[nH]1` [Example 75, 2-Amino-9-[(5S,7R,8R,12aR,14R,15R,15aS,16R)-16-amino-14-(6-amino-9H-purin-9-yl)-2,10,15-trihydroxy-2,10-dioxidooctahydro-12H-5,8-methanofuro[3,2-l][1,3,6,9,11,2,10]pentaoxadiphosphacyclotetradecin-7-yl]-1,9-dihydro-6H-purin-6-one], in experiment [1], the EC50 was found to be 2.6 nM. In experiment [2], the “% Effect at 30 μM relative to 2′3′-cGAMP” value worked out at 96%.
The matching figures for `NC(=O)c1ncnc2c1ncn2[C@@H]1O[C@@H]2COP(=O)(O)O[C@@H]3[C@H](O)[C@@H](COP(=O)(O)O[C@H]2[C@H]1O)O[C@H]3n1cnc2c(=O)[nH]c(N)nc21` [Example 76, 9-[(5R,7R,8R,12aR,14R,15R,15aS,16R)-7-(2-amino-6-oxo-1,6-dihydro-9H-purin-9-yl)-2,10,15,16-tetrahydroxy-2,10-dioxidooctahydro-12H-5,8-methanofuro[3,2-l][1,3,6,9,11,2,10]pentaoxadiphosphacyclotetradecin-14-yl]-9H-purine-6-carboxamide]: 75.4 nM and 39%.
Consider `Nc1nc2c(ncn2[C@@H]2O[C@@H]3COP(=O)(S)O[C@H]4[C@H](F)[C@H](n5nnc6c(N)ncnc65)O[C@@H]4COP(=O)(S)O[C@@H]2C3)c(=O)[nH]1` (stereo partly drawn) [Example 138, 2-amino-9-[(5S,7R,8R,12aR,14R,15S,15aR)-14-(7-amino-3H-[1,2,3]triazolo[4,5-d]pyrimidin-3-yl)-15-fluoro-2,10-dioxido-2,10-disulfanyloctahydro-12H-5,8-methanofuro[3,2-l] [1,3,6,9,11,2,10]pentaoxadiphosphacyclotetra-decin-7-yl]-1,9-dihydro-6H-purin-6-one], for which the EC50 in experiment [1] amounted to 739 nM. Also, the “% Effect at 30 μM relative to 2′3′-cGAMP” value in experiment [2] stood at 51%.
The matching figures for `Nc1nc2c(ncn2[C@@H]2O[C@@H]3CO[P@@](=O)(S)O[C@H]4[C@@H](O)[C@H](n5cnc6c(=O)[nH]cnc65)O[C@@H]4CO[P@@](=O)(S)O[C@@H]2C3)c(=O)[nH]1` [Example 290, 2-amino-9-[(2R,5S,7R,8R,10R,12aR,14R,15R,15aS)-15-hydroxy-2,10-dioxido-14-(6-oxo-1,6-dihydro-9H-purin-9-yl)-2,10-disulfanyloctahydro-12H-5,8-methanofuro[3,2-l][1,3,6,9,11,2,10]pentaoxadiphosphacyclotetradecin-7-yl]-1,9-dihydro-6H-purin-6-one]: 2.5 nM and 90%.
With `Nc1ncnc2c1ncn2[C@@H]1O[C@@H]2COP(=O)(O)O[C@H]3C[C@H](n4cnc5c(=O)[nH]cnc54)O[C@@H]3COP(=O)(O)O[C@@H]1[C@@H]2O` [Example 291, 9-[(5R,7R,8R,12aR,14R,15aS,16R)-7-(6-amino-9H-purin-9-yl)-2,10,16-trihydroxy-2,10-dioxidooctahydro-12H-5,8-methanofuro[3,2-l][1,3,6,9,11,2,10]pentaoxadiphosphacyclotetradecin-14-yl]-1,9-dihydro-6H-purin-6-one], the EC50 in experiment [1] was determined as 64.7 nM. Further, the “% Effect at 30 μM relative to 2′3′-cGAMP” value in experiment [2] came to 98%.
The matching figures for `Nc1ncnc2c1ncn2[C@@H]1O[C@@H]2COP(=O)(O)O[C@H]3[C@@H](F)[C@H](n4cnc5c(=O)[nH]cnc54)O[C@@H]3COP(=O)(O)O[C@@H]1[C@@H]2O` [Example 292, 9-[(5R,7R,8R,12aR,14R,15R,15aR,16R)-7-(6-amino-9H-purin-9-yl)-15-fluoro-2,10,16-trihydroxy-2,10-dioxidooctahydro-12H-5,8-methanofuro[3,2-l][1,3,6,9,11,2,10]pentaoxadiphosphacyclotetradecin-14-yl]-1,9-dihydro-6H-purin-6-one]: 2.6 nM and 114%.
With `Nc1nc2c(ncn2[C@@H]2O[C@@H]3COP(=O)(O)O[C@H]4[C@@H](F)[C@H](n5cnc6c(=O)[nH]cnc65)O[C@@H]4COP(=O)(O)O[C@@H]2[C@@H]3O)c(=O)[nH]1` [Example 293, 2-amino-9-[(5R,7R,8R,12aR,14R,15R,15aR,16R)-15-fluoro-2,10,16-trihydroxy-2,10-dioxido-14-(6-oxo-1,6-dihydro-9H-purin-9-yl)octahydro-12H-5,8-methanofuro[3,2-l] [1,3,6,9,11,2,10]pentaoxadiphosphacyclo-tetradecin-7-yl]-1,9-dihydro-6H-purin-6-one], the EC50 in experiment [1] is 1.9 nM. Further, the “% Effect at 30 μM relative to 2′3′-cGAMP” value in experiment [2] is reported as 86%.

Source of the values: patent publication US11453697B1, “Cyclic di-nucleotide compounds as sting agonists” (Merck Sharp & Dohme Corp., priority 2015, dated 2022).
